The structures appear in SMILES notation. Counter-ions that a name gives are not always drawn.

This is an account of results in US20050192289A1, “Novel cinnamic amides” (Active Biotech AB, priority 2004, published 2005).

For one data set, the target named is T1, CCR1 receptor (Homo sapiens, UniProt P32246).
T1 construct: host or cells: THP-1
T1 sequence (P32246 1-355): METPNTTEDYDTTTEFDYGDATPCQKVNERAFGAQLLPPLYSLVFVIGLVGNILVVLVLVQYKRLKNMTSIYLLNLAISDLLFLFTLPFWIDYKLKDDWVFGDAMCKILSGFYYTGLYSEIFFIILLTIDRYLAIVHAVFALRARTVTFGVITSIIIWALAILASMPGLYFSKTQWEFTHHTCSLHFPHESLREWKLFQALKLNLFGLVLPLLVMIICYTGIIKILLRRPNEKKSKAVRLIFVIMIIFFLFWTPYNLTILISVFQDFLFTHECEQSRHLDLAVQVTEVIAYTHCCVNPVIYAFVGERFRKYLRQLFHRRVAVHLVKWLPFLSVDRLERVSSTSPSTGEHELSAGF
As to the kind of experiment: In vitro Ca2+-flux assay on human monocytes (THP-1 cells stimulated with MIP-1α). Format: cell-based. As to conditions: block of MIP-1α mediated Ca2+ mobilisation in THP-1 cells; Fluo-4. On the procedure: The binding of Mip-1α at the CCR1 receptor leads to an increase of intracellular calcium levels. The ability of the compounds of the invention to block this biologic response of the CCR1 receptor is determined in the Ca^2+-flux assay.
In vitro Ca^2+-Flux Assay on Human Monocytes
• 1. Cell Culture: • a) THP-1 (ATCC Cat# TIB202) • b) Tissue culture medium: RPMI 1640 with Ultraglutamine 1 supplemented with 10% (v/v) foetal calf serum. This medium is hereinafter referred to as “growth medium”. • 2. Assay buffer: HMSS (Hanks' balanced salts solution), 20 mM HEPES, 1 mM CaCl2, 1 mM MgCl2, 2.5 mM Probenecid, pH 7.4. • 3. Fluo-4AM (Molecular Probes Cat # F14201) • 4. Pluronic® F-127 (Molecular Probes Cat # P-6867) • 5. The compounds of the invention were dissolved in DMSO. A serial dilution was made and nine concentrations of each compound were screened to generate a dose curve from which the IC50 value was determined. • 6. MIP-1α (Peprotech EC Ltd Cat # 300-08) • 7. Victor^2 1420 (Perkin Elmer) • 8. Microlite™ ^2+ (Dynex Cat # 7572) Assay Procedure:
THP-1 cells were grown in T-75 cm^2 flasks in growth medium at 37° C. in 5% CO2. The cells were harvested by centrifugation and resuspended in assay buffer. The cells were then loaded with 5 μM Fluo-4 and 0.02% pluronic acid (final concentrations) at 37° C. in 5% CO2 for 30 min. The excess dye was removed by washing with assay buffer. The cells were resuspended and 10^5 cells/well were added in a Microlite plate containing compounds and then incubated for 15 minutes at 37° C. in 5% CO2. The cells were then stimulated with MIP-1α and changes in intracellular free Ca^2+ concentration were measured with a Victor^2.

Data set [1] deals with T2, cloned human CCR1 Chemokine receptor (Homo sapiens, UniProt P32246).
T2 construct: purchased Perkin Elmer 6120525; host or cells: CHO cells
T2 sequence (P32246 1-355): T1 sequence (P32246 1-355)
The experiment in a line: In vitro competitive affinity binding assay (displacement of 125I-MIP-1α). As to conditions: displacement of 125I-MIP-1α from cloned human CCR1 expressed in CHO cells, coated on FlashPlate; 1 hour, ambient temperature. The source says: In the competitive affinity binding assay, the binding affinity of the compounds for the CCR1 receptor can be determined by measuring their ability to displace ^125I-Mip-1α from the CCR1 receptor.
In vitro Competitive Affinity Binding Assay
• 1. Screen Ready™ Targets: cloned human CCR1 Chemokine receptor, expressed in CHO cells, coated on 96-well FlashPlate® (Perkin Elmer Cat #6120525) • 2. Ligand: ^125I-MIP-1α from Perkin Elmer (specific activity is 2200 Ci/mmol) was reconstituted to 25 μCi/L in H2O. • 3. Assay buffer: 50 mM HEPES, 1 mM CaCl2, 5 mM MgCl2, 0.2% BSA, pH 7.4. • 4. MIP-1α (Peprotech EC Ltd Cat # 300-08) • 5. The compounds of the invention were dissolved in DMSO. A serial dilution was made and ten concentrations of each compound were screened to generate a dose curve from which the IC50 value was determined. Assay Procedure:
Membranes coated on the FlashPlate® were incubated with ^125I-MIP-1α in the presence and absence of different concentrations of compounds at ambient temperature for 1 hour. The radioactivity in each well was determined in a microplate scintillation counter, The non-specific binding was defined by binding in the presence of 1250-fold unlabeled MIP-1α. The assay was performed according to the manufacturer's instruction of Screen Ready™ Targets.

A short description of data set [2]: In vivo bioavailability in the mouse (cassette dosing, i.v. or oral). Conditions: female mice (SJL/N Tac), nominal dose 1 mg/kg/compound; for half-life / clearance: mouse; for half-life: plasma half-life; for clearance: plasma; for F: oral bioavailability, F=(AUCinf,po/AUCinf,iv)·(Doseiv/Dosepo). On the procedure:
Female mice (SJL/N Tac) were given a single intravenous or oral dose of a mixture of 5 or 6 compounds per cassette (nominal dose: 1 mg/kg/compound) in a solution containing 0.5% N,N′-dimethylacetamide (DMA) and 15% sulfobutyl ether β-cyclodextrin (Captisol®). Blood samples were taken from one mouse per time point and dose group until 24 hour after respective administration. The dose formulations and plasma concentrations of each compound were determined by LC-MS/MS. The pharmacokinetic parameters were determined by non-compartmental analysis using WinNonlin Professional (version 4.0.1). The elimination rate constant, λ, was estimated by linear regression analysis of the terminal slope of the logarithmic plasma concentration-time curve. The area under the plasma concentration-time curve, AUC0-t, was calculated by using the linear/logarithmic trapezoidal rule. The AUCinf was calculated with the residual area estimated as Cz/λ. The calculated plasma concentration at the last time point, Cz, was obtained from the regression equation. The oral bioavailability (F) was calculated as: Foral=(AUCinf,po/AUCinf,iv)·Doseiv/Dosepo). Pharmacodynamic Assays

`C[C@@H]1CN(C(=O)/C=C/c2ccc([N+](=O)[O-])cc2)[C@@H](C)CN1Cc1ccc(F)cc1` (racemic) [Compound 5.5, (E)-(trans)-1-[4-(4-Fluoro-benzyl)-2,5-dimethyl-piperazine-1-yl]-3-(4-nitro-phenyl)-prop-2-en-1-one]: the IC50 is 23 nM against CCR1 receptor and 33 nM in data set [1].
The compound `O=C(/C=C/c1ccc(Cl)cc1Cl)N1CCN(Cc2ccc(Cl)cc2)CC1` [Compound C, 1-(4-chlorobenzyl)-4-(2,4-dichlorocinnamoyl)-piperazine, reference compound] showed an IC50 against CCR1 receptor of 120 nM.
As to `C[C@@H]1CN(C(=O)/C=C/c2ccc(Cl)cc2)[C@@H](C)CN1Cc1ccc(F)cc1` (racemic) [Compound 6.1, (E)-(trans)-3-(4-Chloro-phenyl)-1-[4-(4-fluoro-benzyl)-2,5-dimethyl-piperazine-1-yl]-prop-2-en-1-one], in data set [2], the half-life was 5.3 h, the clearance is 80 mL/min/kg and the F is given as 62%. At CCR1 receptor, the half-inhibitory concentration (IC50) is 9 nM. In data set [1], the IC50 worked out at 14 nM.
Turning to `COc1cc(/C=C/C(=O)N2CCN(Cc3ccc(F)cc3)CC2)cc(OC)c1OC` [Compound A, 1-[4-(4-Fluoro-benzyl)-piperazine-1-yl]-3-(3,4,5-trimethoxy-phenyl)-prop-2-en-1-one, reference compound], the IC50 was 110 nM at CCR1 receptor and 565 nM in data set [1].
Take `COc1cc(/C=C/C(=O)N2C[C@@H](C)N(Cc3ccc(F)cc3)C[C@@H]2C)cc(OC)c1OC` (racemic) [Compound 5.19, (E)-(trans)-1-[4-(4-Fluoro-benzyl)-2,5-dimethyl-piperazine-1-yl]-3-(3,4,5-trimethoxy-phenyl)-prop-2-en-1-one]: the IC50 against CCR1 receptor is 8 nM; in data set [1], 17 nM.
For `C[C@@H]1CN(Cc2ccc(F)cc2)C[C@H](C)N1C(=O)/C=C/c1ccc(Cl)cc1` [F, reference compound], in that order: 416 nM and > 1000 nM.
The corresponding values for `C[C@@H]1CN(C(=O)/C=C/c2ccc(Cl)c([N+](=O)[O-])c2)[C@@H](C)CN1Cc1ccc(F)cc1` (racemic) [Compound 6.2, (E)-(trans)-3-(4-Chloro-3-nitro-phenyl)-1-[4-(4-fluoro-benzyl)-2,5-dimethyl-piperazne-1-yl]-prop-2-en-1-one] are 4 nM and 21 nM.
In the case of `C[C@H]1CN(C(=O)/C=C/c2ccc(Cl)cc2)[C@@H](C)CN1Cc1ccc(F)cc1` (racemic) [Compound 9.1, (E)-(cis)-3-(4-Chloro-phenyl)-1-[4-(4-fluoro-benzyl)-2,5-dimethyl-piperazine-1-yl]-prop-2-en-1-one, reference compound], on CCR1 receptor, the IC50 was determined as 910 nM.
In the case of `O=C(/C=C/c1ccc(Cl)cc1)N1CCN(Cc2ccc(F)cc2)CC1` [B, 3-(4-chloro-phenyl)-1-[4-(4-fluoro-benzyl)-piperazine-1-yl]-prop-2-en-1-one, reference compound], the values for the IC50 (at CCR1 receptor; in data set [1]) were 63 nM and 235 nM, respectively.
The corresponding values for `C[C@@H]1CN(C(=O)/C=C/c2ccc(Cl)c([N+](=O)[O-])c2)[C@@H](C)CN1Cc1ccc(Cl)cc1` (racemic) [Compound 5.2, (E)-(trans)-3-(4-Chloro-3-nitro-phenyl)-1-[4-(4-chloro-benzyl)-2,5-dimethyl-piperazine-1-yl]-prop-2-en-1-one] are 6 nM and 39 nM.
In the case of `O=C(/C=C\c1ccc(Cl)cc1)N1CCN(Cc2ccc(F)cc2)CC1` [Compound 8.2, (Z)-3-(4-Chloro-phenyl)-1-[4-(4-fluoro-benzyl)-piperazine-1-yl]-prop-2-en-1-one, reference compound], the concentration for half-maximal inhibition (IC50) (against CCR1 receptor; in data set [1]) was > 1000 nM in each case.
Consider `C[C@@H]1CN(C(=O)/C=C/c2ccc(Cl)cc2Cl)[C@@H](C)CN1Cc1ccc(F)cc1` (racemic) [Compound 5.6, (E)-(trans)-3-(2,4-Dichloro-phenyl)-]-[4-(4-fluoro-benzyl)-2,5-dimethyl-piperazine-1-yl]-prop-2-en-1-one hydrochloride], for which the IC50 at CCR1 receptor is 18 nM.
At CCR1 receptor, `C[C@@H]1CN(C(=O)/C=C/c2cc(Cl)c3nsnc3c2)[C@@H](C)CN1Cc1ccc(F)cc1` (racemic) [Compound 5.46, (E)-(trans)-3-(4-Chloro-benzo[2,1,3]thiadiazol-6-yl)-1-[4-(4-fluorobenzyl)-2,5-dimethyl-piperazine-1-yl]-prop-2-en-1-one] yielded an IC50 of 7 nM.
Take `C[C@@H]1CN(C(=O)/C=C/c2ccc3nonc3c2)[C@@H](C)CN1Cc1ccc(F)cc1` (racemic) [Compound 5.13, (E)-(trans)-3-Benzo[2,1,3]oxadiazol-5-yl-1-[4-(4-fluoro-benzyl)-2,5-dimethyl-piperazine-1-yl]-prop-2-en-1-one]: in data set [2], the half-life is 2.3 h, the clearance is 58.3 mL/min/kg and the F turned out to be 29%. This compound showed a half-inhibitory concentration (IC50) at CCR1 receptor of 12 nM. In addition, the IC50 in data set [1] stood at 43 nM.
Take `C[C@@H]1CN(C(=O)/C=C\c2ccc(Cl)cc2)[C@@H](C)CN1Cc1ccc(F)cc1` (racemic) [Compound 8.1, (Z)-(trans)-3-(4-Chloro-phenyl)-1-[4-(4-fluoro-benzyl)-2,5-dimethyl-piperazine-1-yl]-prop-2-en-1-one, reference compound]: the IC50 was 207 nM at CCR1 receptor and > 1000 nM in data set [1].
